# Results as given in ChEMBL document CHEMBL4002584, “Synthesis and antibacterial activities of novel pleuromutilin derivatives with a substituted pyrimidine moiety” (2017).
# Columns and labels:
# Format in all cases: functional
# Staphylococcus aureus [1] = assay: Antibacterial activity against […] Staphylococcus aureus ATCC 29213 after 24 to 48 hrs by agar dilution method
# Staphylococcus aureus [2] = assay: Antibacterial activity against […] Staphylococcus aureus ATCC 33591 after 24 to 48 hrs by agar dilution method
# Staphylococcus aureus [3] = assay: Antibacterial activity against Staphylococcus aureus CMCC (B) 26003 after 24 to 48 hrs by agar dilution method
# Bacillus subtilis [4] = assay: Antibacterial activity against Bacillus subtilis CMCC (B) 63501 after 24 to 48 hrs by agar dilution method
# Escherichia coli [5] = assay: Antibacterial activity against Escherichia coli CMCC (B) 44102 after 24 to 48 hrs by agar dilution method
# Staphylococcus aureus [6] = assay: Antibacterial activity against […] Staphylococcus aureus ATCC 29213 at 320 ug/ml after 24 to 36 hrs by oxford cup assay; conditions: read-out: DIZ
# Staphylococcus aureus [7] = assay: Antibacterial activity against […] Staphylococcus aureus ATCC 29213 at 160 ug/ml after 24 to 36 hrs by oxford cup assay; conditions: read-out: DIZ
# Staphylococcus aureus [8] = assay: Antibacterial activity against […] Staphylococcus aureus ATCC 33591 at 320 ug/ml after 24 to 36 hrs by oxford cup assay; conditions: read-out: DIZ
# Staphylococcus aureus [9] = assay: Antibacterial activity against […] Staphylococcus aureus ATCC 33591 at 160 ug/ml after 24 to 36 hrs by oxford cup assay; conditions: read-out: DIZ
# Staphylococcus aureus [10] = assay: Antibacterial activity against Staphylococcus aureus CMCC (B) 26003 at 320 ug/ml after 24 to 36 hrs by oxford cup assay; conditions: read-out: DIZ
# Staphylococcus aureus [11] = assay: Antibacterial activity against Staphylococcus aureus CMCC (B) 26003 at 160 ug/ml after 24 to 36 hrs by oxford cup assay; conditions: read-out: DIZ
# Bacillus subtilis [12] = assay: Antibacterial activity against Bacillus subtilis CMCC (B) 63501 at 320 ug/ml after 24 to 36 hrs by oxford cup assay; conditions: read-out: DIZ
# Bacillus subtilis [13] = assay: Antibacterial activity against Bacillus subtilis CMCC (B) 63501 at 160 ug/ml after 24 to 36 hrs by oxford cup assay; conditions: read-out: DIZ
# Escherichia coli [14] = assay: Antibacterial activity against Escherichia coli CMCC (B) 44102 at 320 ug/ml after 24 to 36 hrs by oxford cup assay; conditions: read-out: DIZ
# Escherichia coli [15] = assay: Antibacterial activity against Escherichia coli CMCC (B) 44102 at 160 ug/ml after 24 to 36 hrs by oxford cup assay; conditions: read-out: DIZ
Compound,MIC (Staphylococcus aureus [1]),MIC (Staphylococcus aureus [2]),MIC (Staphylococcus aureus [3]),MIC (Bacillus subtilis [4]),MIC (Escherichia coli [5]),zone of inhibition at 320 µg/mL (Staphylococcus aureus [6]),zone of inhibition at 160 µg/mL (Staphylococcus aureus [7]),zone of inhibition at 320 µg/mL (Staphylococcus aureus [8]),zone of inhibition at 160 µg/mL (Staphylococcus aureus [9]),zone of inhibition at 320 µg/mL (Staphylococcus aureus [10]),zone of inhibition at 160 µg/mL (Staphylococcus aureus [11]),zone of inhibition at 320 µg/mL (Bacillus subtilis [12]),zone of inhibition at 160 µg/mL (Bacillus subtilis [13]),zone of inhibition at 320 µg/mL (Escherichia coli [14]),zone of inhibition at 160 µg/mL (Escherichia coli [15])
C=C[C@]1(C)C[C@@H](OC(=O)CSc2nc(N)cc(NC(=O)CN3CCC(CCO)CC3)n2)[C@]2(C)[C@H](C)CC[C@]3(CCC(=O)[C@H]32)[C@@H](C)[C@@H]1O,1 µg/mL,0.5 µg/mL,0.125 µg/mL,2 µg/mL,8 µg/mL,24.9 mm,18.3 mm,32.4 mm,21.6 mm,33.6 mm,24 mm,17.3 mm,15.6 mm,12.7 mm,10.6 mm
C=C[C@]1(C)C[C@@H](OC(=O)CSc2nc(N)cc(NC(=O)CN(CC)CC)n2)[C@]2(C)[C@H](C)CC[C@]3(CCC(=O)[C@H]32)[C@@H](C)[C@@H]1O,0.5 µg/mL,0.25 µg/mL,0.125 µg/mL,4 µg/mL,8 µg/mL,22.3 mm,16.4 mm,25.8 mm,19.9 mm,34.2 mm,23.6 mm,15.7 mm,13.4 mm,12 mm,10.1 mm
C=C[C@]1(C)C[C@@H](OC(=O)CSc2nc(N)cc(NC(=O)CN3CCC[C@@H](CO)C3)n2)[C@]2(C)[C@H](C)CC[C@]3(CCC(=O)[C@H]32)[C@@H](C)[C@@H]1O,0.125 µg/mL,0.125 µg/mL,0.0625 µg/mL,1 µg/mL,4 µg/mL,34.4 mm,26.5 mm,35.1 mm,25.8 mm,38.1 mm,25.9 mm,22.2 mm,17.7 mm,13.3 mm,10.3 mm
C=C[C@]1(C)C[C@@H](OC(=O)CSc2nc(N)cc(NC(=O)CN3CCOCC3)n2)[C@]2(C)[C@H](C)CC[C@]3(CCC(=O)[C@H]32)[C@@H](C)[C@@H]1O,0.25 µg/mL,1 µg/mL,0.125 µg/mL,2 µg/mL,4 µg/mL,28 mm,20.2 mm,26.8 mm,17.9 mm,35.4 mm,24.7 mm,19.6 mm,14.2 mm,11.9 mm,9.82 mm
C=C[C@]1(C)C[C@@H](OC(=O)CSc2nc(N)cc(NC(=O)CN3CCCC3)n2)[C@]2(C)[C@H](C)CC[C@]3(CCC(=O)[C@H]32)[C@@H](C)[C@@H]1O,0.5 µg/mL,0.5 µg/mL,0.125 µg/mL,2 µg/mL,4 µg/mL,26.5 mm,19.2 mm,24 mm,18.3 mm,30.4 mm,22.2 mm,20 mm,14.9 mm,13.4 mm,10.2 mm
C=C[C@]1(C)C[C@@H](OC(=O)CSc2nc(N)cc(NC(=O)CN(C)C)n2)[C@]2(C)[C@H](C)CC[C@]3(CCC(=O)[C@H]32)[C@@H](C)[C@@H]1O,1 µg/mL,0.5 µg/mL,0.25 µg/mL,4 µg/mL,8 µg/mL,25.4 mm,18.9 mm,22.4 mm,18 mm,34.2 mm,21.8 mm,17.5 mm,13.9 mm,12.1 mm,9.55 mm
C=C[C@]1(C)C[C@@H](OC(=O)CSc2nc(N)cc(NC(=O)CN3CCC(O)CC3)n2)[C@]2(C)[C@H](C)CC[C@]3(CCC(=O)[C@H]32)[C@@H](C)[C@@H]1O,0.25 µg/mL,0.25 µg/mL,0.125 µg/mL,2 µg/mL,4 µg/mL,30.5 mm,21 mm,34.4 mm,23.5 mm,30.6 mm,21.1 mm,16.1 mm,13.6 mm,11.4 mm,8.54 mm
C=C[C@]1(C)C[C@@H](OC(=O)CSc2nc(N)cc(NC(=O)CN3CCCCC3)n2)[C@]2(C)[C@H](C)CC[C@]3(CCC(=O)[C@H]32)[C@@H](C)[C@@H]1O,0.25 µg/mL,0.5 µg/mL,0.25 µg/mL,4 µg/mL,8 µg/mL,24.9 mm,18.2 mm,22.8 mm,17.9 mm,30.1 mm,23 mm,19.6 mm,15.2 mm,10.3 mm,8.89 mm
C=C[C@]1(C)C[C@@H](OC(=O)CSc2nc(N)cc(NC(=O)CN3CC[C@H](O)C3)n2)[C@]2(C)[C@H](C)CC[C@]3(CCC(=O)[C@H]32)[C@@H](C)[C@@H]1O,0.125 µg/mL,0.25 µg/mL,0.125 µg/mL,2 µg/mL,8 µg/mL,29.6 mm,22.1 mm,33.3 mm,22.7 mm,32.7 mm,22.1 mm,15.8 mm,13.6 mm,10.5 mm,8.86 mm
